In US20050058636A1, “Medicament against thrombotic diseases” (priority 2002, published 2005):

What was measured:
PAI-1 = assay: Urokinase-mediated clot lysis in the presence of PAI-1; format: biochemical; details: not shown
[1] = molecular target: T1, binding of PAI-1 to vitronectin in PAI-1-depleted extracellular matrix of endothelial cells (Homo sapiens, UniProt P04004); assay: Binding of PAI-1 to endothelial cell matrix; details: 2 μg/ml PAI-1; competitors each 500 nM; 10 μM ZnCl2 (FIG. 1)
T1 construct: The extracellular matrix of human umbilical vein endothelial cells was prepared according to standard procedures; endogenous in cells; host or cells: extracellular matrix of human umbilical vein endothelial cells, glycine-treated
T1 sequence (P04004 20-478): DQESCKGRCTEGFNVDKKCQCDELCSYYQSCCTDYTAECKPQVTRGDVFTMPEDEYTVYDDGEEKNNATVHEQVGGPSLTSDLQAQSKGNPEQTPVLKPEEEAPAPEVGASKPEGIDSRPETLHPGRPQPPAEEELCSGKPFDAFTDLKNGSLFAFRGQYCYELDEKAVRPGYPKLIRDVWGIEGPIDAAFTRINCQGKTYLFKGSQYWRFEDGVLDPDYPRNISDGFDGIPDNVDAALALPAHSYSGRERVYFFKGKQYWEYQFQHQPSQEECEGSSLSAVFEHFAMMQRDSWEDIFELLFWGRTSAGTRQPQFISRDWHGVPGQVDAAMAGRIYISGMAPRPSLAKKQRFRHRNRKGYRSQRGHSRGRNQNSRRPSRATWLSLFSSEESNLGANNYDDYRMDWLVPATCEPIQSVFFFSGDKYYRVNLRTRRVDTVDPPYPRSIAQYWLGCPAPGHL
Method: The extracellular matrix of human umbilical vein endothelial cells was prepared according to standard procedures. PAI-1-depleted extracellular matrix was obtained by subsequent incubation with glycine (0.1 M, pH 2.3) for 2 h at 25° C. Wells were washed and blocked with phosphate buffered saline containing 3% (wt/vol) bovine serum albumin before proceeding with binding assays. Binding of PAI-1 (2 μg/ml) to the extracellular matrix was performed in a final volume of 50 μl Tris-buffered saline containing 0.1% Tween-20, 0.3% (wt/vol) bovine serum albumin for 2 h at 22° C. in the absence or presence of […] and different kininogen forms. Following the incubation period and a washing step, bound PAI-1 was quantitated by anti-human PAI-1 monoclonal antibody 12A4, followed by addition of 1:1000 diluted peroxidase-conjugated goat anti-mouse immunoglobulins. The conversion of the substrate 2,2,-azino-di(3-ethyl) benz-thiazoline sulphate was monitored at 405 nm in a Thermomax microtiter plate reader. […]
FIG. 1 The binding of 2 μg/ml PAI-1 to PAI-1-depleted (2 h glycine preincubation) extracellular matrix of cultured endothelial cells was tested in the absence (−)or presence of HK, HKa, GST-domain 5 (D5), the peptides HK483 and HK486 (each 500 nM) in a buffer containing 10 μM ZnCl2. Specific binding of PAI-1 is presented as absorbance at 405 nm.

[2] = molecular target: T2, platelet αIIbβ3-integrin with vitronectin (Homo sapiens, UniProt P04004); assay: Binding of vitronectin to αIIbβ3-integrin; details: vitronectin 2 μg/ml, immobilized αIIbβ3-integrin 5 μg/ml, 10 μM ZnCl2 (FIG. 3)
T2 sequence (P04004 20-478): T1 sequence (P04004 20-478)
Method: Microtiter plates were coated with 5 μg/ml αIIbβ3-integrin in Tris-buffered saline, pH 7.4, containing 1 mM CaCl2, 1 mM MgCl2 overnight at 4° C. and then blocked with 3% (w/v) bovine serum albumin. Binding of multimeric vitronectin (2 μg/ml) was performed in a final volume of 50 μl Tris-buffered saline containing 0.1% Tween-20, 0.3% (w/v) bovine serum albumin, 1 mM CaCl2 and 1 mM MgCl2 for 2 h at 22° C. in the absence or presence of 10 μM ZnCl2 and different kininogen forms. After the incubation period, monoclonal anti-vitronectin antibody VN7 at a concentration of 125 ng/ml was added, followed by addition of 1:1000 diluted peroxidase-conjugated goat anti-mouse immunoglobulins, respectively. Binding was quantitated as described above.
FIG. 3 The binding of vitronectin (2 μg/ml) to immobilized αIIbβ3-integrin (5 μg/ml) in the absence or presence of increasing concentrations of PAI-1 (filled squares), HKa (filled circles) or GST-domain 5 (open circles) in a buffer containing 10 μM ZnCl2 was carried out. Specific binding is presented as absorbance at 405 nm.

platelets = assay: Platelet adhesion onto vitronectin-coated plates; format: cell-based; details: competitors each 250 nM (FIG. 4)
Method: Multiwell plates were coated with 5 μg/ml multimeric vitronectin (dissolved in bicarbonate buffer, pH 9.6) and blocked with 3% (wt/vol) bovine serum albumin for 16 h at 4° C. Platelets stained with calcein acetoxymethyl ester (calcein-AM, 2.5 μM) (15 min at 37° C. in the dark) at a density of 5×10^6 cells suspended in 50 μl HEPES-Tyrode buffer containing 4 mM MgCl2 were added together with the respective competitors and incubated for 30 min at 37° C. After three washes with phosphate buffered saline, bound platelets were lysed with 100 μl of lysis buffer (150 mM NaCl, 10 mM Tris-CH1, pH 7.5, 5 mM EDTA, 1% (wt/vol) NP-40, 1 mM phenyl-methylsulfonyl fluoride, 20 μg/ml soybean trypsin inhibitor) and quantified in a fluorescent plate reader (excitation filter 492 nm, emission filter 535 nm).
FIG. 4. The adhesion of platelets to vitronectin in the absence (−) or presence of HK, HKa, GST-domain 5(D5), or the peptides HK483 and HK486 (each 250 nM) was carried out. Cell adhesion is presented as % of control.

platelet-rich plasma = assay: Aggregation of platelet-rich plasma; format: cell-based; details: Adenosin-diphosphate (5 μM)-induced; competitors each 1000 nM (FIG. 5)
Method: Platelet-rich plasma from fresh whole blood in sodium citrate was prepared by centrifugation of anticoagulated whole blood at 150 g for 20 min. After incubation of 0.45 ml of platelet rich plasma with different kininogen forms as indicated in the figure legends, and addition of 5 μl of […] at a final concentration of 5 μM, platelet aggregation was induced. Aggregation was quantitated by following the change in light transmission in a standardized aggregometer.
FIG. 5 Adenosin-diphosphate (5 μM)-induced aggregation of platelet-rich plasma was performed in the absence (−) or presence of GST-domain 5 (D5), or the peptides HK483 and HK486 (each 1000 nM). Platelet aggregation is presented as % of control.

His-483-Gly-497 (HGHGKHKNKGKKNGK; UniProt P01042 501-515, looked up, fragment) [HK483, peptide derived from the carboxy-terminus of the domain 5 of HK]
urokinase-mediated clot lysis, which is inhibited in the presence of PAI-1 (PAI-1): enhance | binding of PAI-1 to vitronectin in PAI-1-depleted (glycine-treated) extracellular matrix of endothelial cells [1]: inhibited | interaction of platelet αIIbβ3-integrin with vitronectin [2]: block | αIIbβ3-integrin-mediated platelet adhesion to vitronectin (platelets): block | aggregation of platelet-rich plasma (platelet-rich plasma): inhibit
